The compounds below were run on ATF4 luciferase reporter in HEK293T cells (assay: ATF4-Luc assay (ATF4 luciferase reporter, tunicamycin-treated HEK293T cells)). Conditions: Homo sapiens, HEK-293T; HEK293T cells carrying the ATF4 luciferase reporter, 1 μg/mL tunicamycin, 7 hours.
Format: cell-based, human

Row | Structure (SMILES) | EC50 [nM]
1 | O=C(COc1ccc(F)cc1)NC12CCC(NC(=O)COc3ccc(C(F)(F)F)c(F)c3)(CC1)[C@@H](O)C2 [Compound 835, 2-(4-fluorophenoxy)-N-[(3S)-4-{2-[3-fluoro-4-(trifluoromethyl)phenoxy]acetamido}-3-hydroxybicyclo[2.2.2]octan-1-yl]acetamide] | < 10
2 | O=C(COc1ccc(OC(F)F)cc1)NC12CC(NC(=O)COc3ccc(Cl)c(F)c3)(C1)C2 [Compound 397, 2-(4-chloro-3-fluorophenoxy)-N-(3-{2-[4-(difluoromethoxy)phenoxy]acetamido}bicyclo[1.1.1]pentan-1-yl)acetamide] | 10 to 50
3 | COC(=O)C1=CC2(NC(=O)COc3ccc(Cl)c(F)c3)CCC1(NC(=O)COc1ccc(Cl)c(F)c1)CC2 [Compound 718, methyl 1,4-bis[2-(4-chloro-3-fluorophenoxy)acetamido]bicyclo[2.2.2]oct-2-ene-2-carboxylate] | < 10
4 | O=C(COc1ccc(Cl)c(F)c1)NC12CC(NS(=O)(=O)Cc3cc(F)cc(F)c3)(C1)C2 [Compound 484, 2-(4-chloro-3-fluorophenoxy)-N-(3-{[(3,5-difluorophenyl)methanesulfonyl]amino}bicyclo[1.1.1]pentan-1-yl)acetamide] | > 2000
5 | O=C(COc1cccnc1)NC12CCC(NC(=O)COc3ccc(Cl)c(F)c3)(C1)C2 [Compound 403, 2-(4-chloro-3-fluorophenoxy)-N-(4-{2-[(pyridin-3-yl)oxy]acetamido}bicyclo[2.1.1]hexan-1-yl)acetamide] | 500 to 2000
6 | O=C(COc1ccc(OC(F)(F)F)c(F)c1)NC12CCC(NC(=O)COc3ccc4c(c3)OC(F)(F)O4)(CC1)[C@@H](O)C2 [Compound 760, 2-[(2,2-difluoro-2H-1,3-benzodioxol-5-yl)oxy]-N-[(2S)-4-{2-[3-fluoro-4-(trifluoromethoxy)phenoxy]acetamido}-2-hydroxybicyclo[2.2.2]octan-1-yl]acetamide] | < 10
7 | O=C(COc1ccccc1)NC12CCC(NC(=O)COc3ccc(Cl)c(F)c3)(CC1)[C@@H](O)C2 [Compound 840, 2-(4-chloro-3-fluorophenoxy)-N-[(2S)-2-hydroxy-4-(2-phenoxyacetamido)bicyclo[2.2.2]octan-1-yl]acetamide] | < 10
8 | O=C(COc1ccc(Cl)c(F)c1)NC12CC(NC(=O)COc3ccccn3)(C1)C2 [Compound 402, 2-(4-chloro-3-fluorophenoxy)-N-(3-{2-[(pyridin-2-yl)oxy]acetamido}bicyclo[1.1.1]pentan-1-yl)acetamide] | 50 to 250
9 | CCc1nc(C)ccc1OCC(=O)NC12CC(NC(=O)COc3ccc(Cl)c(F)c3)(C1)C2 [Compound 239, 2-(4-chloro-3-fluorophenoxy)-N-(3-{2-[(2-ethyl-6-methylpyridin-3-yl)oxy]acetamido}bicyclo[1.1.1]pentan-1-yl)acetamide] | > 2000
10 | Cc1ccc(CCOCC(=O)NC23CC(NC(=O)COc4ccc(Cl)c(F)c4)(C2)C3)cc1 [Compound 137, 2-(4-chloro-3-fluorophenoxy)-N-(3-{2-[2-(4-methylphenyl)ethoxy]acetamido}-bicyclo[1.1.1]pentan-1-yl)acetamide] | 500 to 2000
11 | O=C(COCCc1ccc(F)cc1)NC12CC(NC(=O)COc3ccc(Cl)c(Cl)c3)(C1)C2 [Compound 149, 2-(3,4-dichlorophenoxy)-N-(3-{2-[2-(4-fluorophenyl)ethoxy]acetamido}-bicyclo[1.1.1]pentan-1-yl)acetamide] | 10 to 50
12 | O=C(COc1cccnc1)NC12CCC(NC(=O)COc3ccc(Cl)c(F)c3)(CC1)[C@@H](O)C2 [Compound 607, 2-(4-chloro-3-fluorophenoxy)-N-[(2S)-2-hydroxy-4-{2-[(pyridin-3-yl)oxy]acetamido}bicyclo[2.2.2]octan-1-yl]acetamide] | 50 to 250
13 | O=C(COc1ccc(Cl)c(F)c1)NC12CCC(NCCOc3ccc(Cl)cc3)(CC1)C(O)C2 (stereo not drawn) [Compound 336, 2-(4-chloro-3-fluorophenoxy)-N-(4-{[2-(4-chlorophenoxy)ethyl]amino}-3-hydroxybicyclo[2.2.2]octan-1-yl)acetamide] | < 10
14 | COc1ccc(COCC(=O)NC23CC(NC(=O)COc4ccc(Cl)c(F)c4)(C2)C3)cn1 [Compound 281, 2-(4-chloro-3-fluorophenoxy)-N-(3-{2-[(6-methoxypyridin-3-yl)methoxy]acetamido}bicyclo[1.1.1]pentan-1-yl)acetamide] | 500 to 2000
15 | O=C(COc1ccc(Cl)cc1)NC12CCC(NC(=O)COc3ccc(Cl)c(Cl)c3)(CC1)[C@@H](O)C2 [Compound 582, 2-(4-chlorophenoxy)-N-{(3S)-4-[2-(3,4-dichlorophenoxy)acetamido]-3-hydroxybicyclo[2.2.2]octan-1-yl}acetamide] | < 10
16 | O=C(COc1ccc(Cl)c(F)c1)NC12CC(NCC(O)c3ccc(Cl)cc3)(C1)C2 (stereo not drawn) [Compound 290, 2-(4-chloro-3-fluorophenoxy)-N-(3-{[2-(4-chlorophenyl)-2-hydroxyethyl]amino}bicyclo[1.1.1]pentan-1-yl)acetamide] | 500 to 2000
17 | O=C(COc1ccccc1)NC12CC(NC(=O)COc3ccc(Cl)c(F)c3)(C1)C2 [Compound 398, 2-(4-chloro-3-fluorophenoxy)-N-[3-(2-phenoxyacetamido)bicyclo[1.1.1]pentan-1-yl]acetamide] | 10 to 50
18 | Cc1cc2nc(CNC34CCC(NC(=O)COc5ccc(C(F)(F)F)c(F)c5)(CC3)[C@@H](O)C4)[nH]c2cc1C [Compound 673, N-[(2S)-4-{[(5,6-dimethyl-1H-benzimidazol-2-yl)methyl]amino}-2-hydroxybicyclo[2.2.2]octan-1-yl]-2-[3-fluoro-4-(trifluoromethyl)phenoxy]acetamide] | 50 to 250
19 | O=C(COc1ccc(Cl)c(Cl)c1)NC12CC(NC(=O)COc3cnc(C(F)(F)F)cn3)(C1)C2 [Compound 105, 2-(3,4-dichlorophenoxy)-N-[3-(2-{[5-(trifluoromethyl)pyrazin-2-yl]oxy}acetamido)bicyclo[1.1.1]pentan-1-yl]acetamide] | 10 to 50
20 | O=C(COc1ccc(Cl)c(Cl)c1)NC12CC(NCC(=O)c3ccc(Cl)cc3)(C1)C2 [Compound 287, N-(3-{[2-(4-chlorophenyl)-2-oxoethyl]amino}bicyclo[1.1.1]pentan-1-yl)-2-(3,4-dichlorophenoxy)acetamide] | 50 to 250
21 | CN1C(=O)C2(NC(=O)COc3ccc(Cl)c(Cl)c3)CCC1(NC(=O)COc1ccc(Cl)c(Cl)c1)CC2 [Compound 599, N,N-(2-methyl-3-oxo-2-azabicyclo[2.2.2]octane-1,4-diyl)bis[2-(3,4-dicholorophenoxy)acetamide]] | 10 to 50
22 | O=C(COc1ccc(F)c(F)c1)NC12CCC(NC(=O)COc3ccc4c(c3)OC(F)(F)O4)(CC1)C(O)C2 (stereo not drawn) [Compound 362, 2-[(2,2-difluoro-2H-1,3-benzodioxol-5-yl)oxy]-N-{4-[2-(3,4-difluorophenoxy)acetamido]-2-hydroxybicyclo[2.2.2]octan-1-yl}acetamide] | < 10
23 | Cc1ccc(OCC(=O)NC23CCC(NC(=O)COc4cc(F)c5cn[nH]c5c4)(CC2)[C@@H](O)C3)cc1F [Compound 735] | < 10
24 | O=C(COc1ccc(Cl)c(F)c1)NC12CC(NC(=O)C(CCO)Oc3ccc(Cl)cc3)(C1)C2 (stereo not drawn) [Compound 827, N-{3-[2-(4-chloro-3-fluorophenoxy)acetamido]bicyclo[1.1.1]pentan-1-yl}-2-(4-chlorophenoxy)-4-hydroxybutanamide] | 50 to 250

From patent US20240166652A1, “MODULATORS OF THE INTEGRATED STRESS PATHWAY” (Calico Life Sciences LLC, priority 2017, published 2024)
